Structures can show the parent of a compound that is named as a salt.
Assays:
PC12 cells = conditions: treatment with the kinase inhibitor; cited from earlier work
water solubility = format: physicochemical; conditions: at 25° C.
Method: (§1) Instead, the melting of Form I is observed to recrystallize to another, metastable form having a melting point of about 172.5° C.

[1] = storage stability of the crystalline form; format: physicochemical; conditions: stored at 40° C. and 75% relative humidity for up to four weeks
Method: as §1

## COC(=O)[C@@]1(O)C[C@H]2O[C@]1(C)n1c3ccccc3c3c4c(c5c6ccccc6n2c5c31)C(=O)NC4 [Compound K252a, K252a]
PC12 cells
  Neuregulin-1 induced neurite outgrowth: potentiation of Neuregulin-1 induced neurite outgrowth

## CC(C)C[C@](C)(N)COc1ccc(-c2ccnc(C(F)F)c2)nc1C(F)F [Compound K, ((S)-1-((2′,6-bis(difluoromethyl)-[2,4′-bipyridin]-5-yl)oxy)-2,4-dimethylpentan-2-aminiumdihydrogen phosphate]
Water solubility; listed as Form I
  water solubility: 26.8 mg/mL
[1]
  stability on storage (form, morphology, purity): neither the form itself, its morphology, nor its purity changed

## CC(C)C[C@](C)(N)COc1ccc(-c2ccnc(C(F)F)c2)nc1C(F)F [Compound S, (S)-1-((2′,6-bis(difluoromethyl)-[2,4′-bipyridin]-5-yl)oxy)-2,4-dimethylpentan-2-amine hydrochloride]
Water solubility; listed as hydrochloride salt of Compound J, hydrochloride
  water solubility: 2.9 mg/mL

Reference: patent US12312325B2, “Methods and compounds useful in the synthesis of an AAK1 inhibitor” (Lexicon Pharmaceuticals, Inc., priority 2022, dated 2025)
